The subject of data set [1] is L. (L.) amazonensis LTB0016 promastigotes. Kind of data set: Promastigote in vitro susceptibility (Alamar Blue/resazurin), reference strain. It is filed as cell-based, Leishmania amazonensis. The following applies: for growth inhibition / inhibition at 50 µM: LTB0016, 50 µM; for inhibition at 50 µM: read-out: growth inhibition. The procedure: The fluorometric method of Alamar Blue® (resazurin) was used. Promastigotes grown in biphasic agar-blood medium, at the exponential phase of growth, were seeded in flat-bottom 96-well culture plates, at a cell density of 1 × 10^6 parasites mL^−1 (200,000 parasites/well), in 180 µL of RPMIc without phenol red. Subsequently, either a sole concentration (50 µM), or increasing concentrations of compounds or drugs were applied, according to each treatment group, in volumes of 2 µL. Plates were kept at 26 °C, in a humid chamber, for 72 h. […] Live parasites are metabolically active and capable of reducing non-fluorescent resazurin (blue) to fluorescent resorufin (red). Fluorescence intensity is directly proportional to the number of viable cells. […] At least two independent experiments were performed in duplicate. The effect of trivalent antimonial [SbIII, potassium antimonyl tartrate trihydrate, Sigma-Aldrich, (St. Louis, MO, USA)] was included as positive control of the assay.
In general terms: The colour change of resazurin is a common sign of viable cells or microbes.

In data set [2] the test system is J774.1 macrophages. Briefly: Cytotoxicity (Alamar Blue) in macrophages. The following applies: 72 h. In kind it is cell-based, murine. How it is done: (§1) In flat-bottom 96-well culture plates, J774.1 macrophages were seeded at a cell density of 5 × 10^4 mL^−1 (10,000 macrophages/well) in 200 µL of RPMIc. After 24 h at 37 °C, 5% CO2, medium was replaced by 180 µL of RPMIc, without phenol red, and increasing concentrations of test compounds in 2-µL volumes. […] At least two independent experiments were performed in duplicate. Based on the inhibition of cell growth caused by the tested compounds, the percentage of growth inhibition compared to untreated cells was calculated. […] Selectivity indices (SI) were calculated, dividing the macrophage CC50 by the parasites GI50 (SI = CC50/GI50).

Data set [3] deals with L. (V.) braziliensis promastigotes, reference strain MHOM/BR/LTB300. The following applies: cited from earlier work; for active concentration in L. (L.) braziliensis: reference strain MHOM/BR/LTB300.
Data set [4] concerns L. (L.) braziliensis MHOM/BR/LTB300. Set-up: method as in PMID 25240731. The following applies: cited from earlier work.
The nature of data set [5]: Cytotoxicity (Alamar Blue) in macrophages. It is filed as cell-based, murine. The following applies: mouse, J774.1 macrophages. The procedure: as §1
Data set [6] has as its system L. (L.) amazonensis VE98MR promastigotes. Kind of data set: Promastigote in vitro susceptibility (Alamar Blue/resazurin), patient isolate VE98MR. It is filed as cell-based, Leishmania amazonensis. How it is done:
(§2) The fluorometric method of Alamar Blue® (resazurin) was used. Promastigotes grown in biphasic agar-blood medium, at the exponential phase of growth, were seeded in flat-bottom 96-well culture plates, at a cell density of 1 × 10^6 parasites mL^−1 (200,000 parasites/well), in 180 µL of RPMIc without phenol red. Subsequently, either a sole concentration (50 µM), or increasing concentrations of compounds or drugs were applied, according to each treatment group, in volumes of 2 µL. Plates were kept at 26 °C, in a humid chamber, for 72 h. Resazurin was then added (20 µL of 10% v/v), to reach a final concentration of 250 µM and plates were incubated for an additional 4 h. Live parasites are metabolically active and capable of reducing non-fluorescent resazurin (blue) to fluorescent resorufin (red). Fluorescence intensity is directly proportional to the number of viable cells. The fluorometric reading was carried out using the appropriate wavelengths (ex: 540 nm/em: 580 nm) in a spectrofluorometer Victor^2 Wallac (Perkin Elmer, Turku, Finland). At least two independent experiments were performed in duplicate. The effect of trivalent antimonial [SbIII, potassium antimonyl tartrate trihydrate, Sigma-Aldrich, (St. Louis, MO, USA)] was included as positive control of the assay.

The test system of data set [7] is L. (L.) amazonensis VE2000MM promastigotes. Briefly: Promastigote in vitro susceptibility (Alamar Blue/resazurin), patient isolate VE2000MM. In kind it is cell-based, Leishmania amazonensis. How it is done:
as §2

For data set [8], the system named is L. (L.) amazonensis LTB0016, VE98MR and VE2000MM promastigotes. Kind of data set: Plasma membrane potential (ΔΨp), bisoxonol fluorescence. In kind it is cell-based, Leishmania amazonensis. The following applies: VE2000MM promastigotes; valinomycin 1 µM. How it is done:
To evaluate the plasma membrane potential (ΔΨp), the fluorescent compound, bisoxonol, bis[1,3-diethylthiobarbituric acid] trimethine oxonol, was used, as well as a method optimized by Padrón-Nieves et al.. Initially, calibration curves for each strain, using increasing concentrations of KCl (0.5 to 75 mM), were performed in the late log growth phase Leishmania promastigotes in the presence of the potassium ionophore valinomycin. By this procedure, fluorescence values could be transformed into millivolts (mV), applying the Nernst equation, ΔΨp = −59.4 log(120/[KCl]). […] After 10 min of incubation in the dark, fluorescence was measured in a Victor^2 Wallac spectrofluorometer (Perkin Elmer, Turku, Finland), using the appropriate wavelengths (ex: 540 nm/em: 580 nm). […] Once the corresponding calibration curve for each strain was obtained, the effect of compounds on the ΔΨp was evaluated. […] After 10 min of incubation in the dark, fluorescence was measured, using the appropriate wavelengths (ex: 540 nm/em: 580 nm). […] To transform the fluorescence values in millivolts (mV), calibration curves were prepared using increasing concentrations of KCl (0.5, 1.15, 2.5, 5, 10, 20, 40, and 75 mM). […]

The mark [9] stands for this setting: LTB0016 promastigotes, 72 h, read-out: Promastigote (GI50) mean.
[10] abbreviates: J774.1 CC50 / LTB0016 promastigote GI50.
Setting [11] is: Leishmania amazonensis, LTB0016 promastigotes, 72 h, read-out: Promastigote (GI50) mean.

Like-named read-outs stand apart in the source and are kept apart here.

Usually GI50 stands for the concentration that inhibits growth by half. As usually defined, the CC50 is the concentration that lowers cell viability or growth by half. With “3,28-diformylbetulin triazolodione [Compound 26]”, in data set [1], the “SI CC50/GI50” value is 5.68 and the growth inhibition result was “at least 75%”. Moreover, in data set [1] (setting [9]), the GI50 stood at 3.85 µM. The CC50 in data set [2] worked out at 21.9 µM. For the same molecule, in data set [3], the GI50 was < 1 µM and the “active concentration in L. (L.) braziliensis” value (from here on “active concentration”) is given as “less than 10 µM”. The “inhibition of parasite migration” value in data set [4] is “inhibited parasite migration at nano and picomolar concentrations”.
For orientation: inhibition means the percentage by which the read-out fell short of the control. With `C=C(C)[C@@H]1CC[C@]2(CO)CC[C@]3(C)[C@H](CC[C@@H]4[C@@]5(C)CC[C@H](O)C(C)(C)[C@@H]5CC[C@]43C)[C@@H]12` [Compound 1, betulin], in data set [1] (setting [10]), the “SI CC50/GI50” value worked out at 1.30. Besides, the inhibition at 50 µM in data set [1] (Leishmania amazonensis) was ≥ 75%. Besides, the GI50 in data set [1] (setting [11]) is 19.3 µM. Further, the CC50 at 72 h in data set [5] worked out at 25.1 µM.
Consider `C=C(C)[C@@H]1CC[C@]2(C(=O)O)CC[C@]3(C)[C@H](CC[C@@H]4[C@@]5(C)CC[C@H](O)C(C)(C)[C@@H]5CC[C@]43C)[C@@H]12` [Compound 11, betulinic acid], for which the inhibition at 50 µM in data set [1] (Leishmania amazonensis) worked out at 44%.
`C=C(C)[C@@H]1CC[C@]2(C=O)CC[C@]3(C)[C@H](CC[C@@H]4[C@@]5(C)CC[C@H](O)C(C)(C)[C@@H]5CC[C@]43C)[C@@H]12` [Compound 12, betulinic aldehyde] gave a growth inhibition in data set [1] of 67%.
The same measure, in the same setting: the same measure for `C=C(C)[C@@H]1CC[C@]2(C(=O)O)CC[C@]3(C)[C@H](CC[C@@H]4[C@@]5(C)CC[C@H](O)C(C)(C)[C@@H]5CC[C@]43C)[C@@H]12` [Compound 13]: “did not show enough anti-leishmanial activity”.
For the molecule `C=C(C)[C@@H]1CC[C@]2(C(=O)O)CC[C@]3(C)[C@H](CC[C@@H]4[C@@]5(C)CCC(=O)C(C)(C)[C@@H]5CC[C@]43C)[C@@H]12` [Compound 14], the growth inhibition result in data set [1] is reported as “did not show enough anti-leishmanial activity”. In addition, the “active concentration” value in data set [3] is listed as “less than 10 µM”.
As to `C=C(C)C1CCC2(C=NO)CCC3(C)C(CCC4C5(C)CCC(O)C(C)(C)C5CCC43C)C12` (stereo not shown) [Compound 17], the “SI CC50/GI50” value in data set [1] (setting [10]) is 14.23. Moreover, the growth inhibition entry in data set [1] is “at least 75%”. Also, the GI50 in data set [1] (setting [9]) was determined as 1.35 µM. The same molecule displayed a CC50 in data set [2] of 19.3 µM. For the same molecule, the “active concentration” value in data set [3] is recorded as “less than 10 µM”.
In the case of `[K+].[K+].[O]=[Cr](=[O])([O-])[O][Cr](=[O])(=[O])[O-]` [Compound K2Cr2O7, K2Cr2O7], the concentration for 50% growth inhibition (GI50) in data set [1] (data not detailed in the manuscript, parasite stage not stated, read-out: GI50 against K2Cr2O7, LTB0016) was 1060 µM; in data set [6] (data not detailed in the manuscript, parasite stage not stated, read-out: GI50 against K2Cr2O7, VE98MR), > 2500 µM; in data set [7] (data not detailed in the manuscript, parasite stage not stated, read-out: GI50 against K2Cr2O7, VE2000MM), > 2500 µM.
Take `CCCCCCCCCCCCCCCCOP(=O)([O-])OCC[N+](C)(C)C` [MLF, miltefosine, reference compound]: the GI50 was determined as 4.17 µM in data set [1] (setting [11]) and 5.13 µM in data set [7] (Leishmania amazonensis, read-out: GI50 promastigotes VE2000MM).
Consider `O=NO` [NaNO2, sodium nitrite], for which the 50% growth inhibitory concentration (GI50) in data set [1] (data not detailed in the manuscript, parasite stage not stated, read-out: GI50 against NaNO2, LTB0016) was 0.91 µM; in data set [6] (data not detailed in the manuscript, parasite stage not stated, read-out: GI50 against NaNO2, VE98MR), 3.28 µM; in data set [7] (data not detailed in the manuscript, parasite stage not stated, read-out: GI50 against NaNO2, VE2000MM), 4.79 µM.
On to `N=C(N)c1ccc(OCCCCCOc2ccc(C(=N)N)cc2)cc1` [PNT, reference compound], for which, in data set [1] (setting [9]), the GI50 turned out to be 0.93 µM.
Regarding `CC(C)[C@@H]1NC(=O)[C@H](C)OC(=O)[C@@H](C(C)C)NC(=O)[C@@H](C(C)C)OC(=O)[C@H](C(C)C)NC(=O)[C@H](C)OC(=O)[C@@H](C(C)C)NC(=O)[C@@H](C(C)C)OC(=O)[C@H](C(C)C)NC(=O)[C@H](C)OC(=O)[C@@H](C(C)C)NC(=O)[C@@H](C(C)C)OC1=O` [valinomycin, reference compound], the “Effect on plasma membrane potential (ΔΨp), VE2000MM” value in data set [8] was “not sensitive”.
As for “potassium antimonyl tartrate trihydrate [SbIII]”, the GI50 is 5.51 µM in data set [1] (setting [9]); 9.08 µM in data set [6] (promastigotes, read-out: GI50 promastigotes VE98MR); 13.6 µM in data set [7] (promastigotes, read-out: GI50 promastigotes VE2000MM).

These data come from paper PMC7913927, “Leishmanicidal Activity of Betulin Derivatives in Leishmania amazonensis; Effect on Plasma and Mitochondrial Membrane Potential, and Macrophage Nitric Oxide and Superoxide Production” (Microorganisms, 2021).
